Experimental findings from patent publication US20200362303A1, “MAINTENANCE-AND-AMPLIFICATION METHOD AND DIFFERENTIATION INDUCTION METHOD FOR PRIMORDIAL GERM CELLS/PRIMORDIAL GERM CELL-LIKE CELLS” (KYOTO UNIVERSITY, priority 2017, published 2020) are described below.

The subject of test [1] is PGCLCs induced from BVSCVR ESC (XX). The test can be described thus: BVSC and VR expression by FACS in cultured PGCLC. The test is classed as cell-based, mouse. As to conditions: added at c3, read at c9; varying concentrations. How it is done:
(§1) The PGC/PGCLC expansion medium was constituted of 10% KSR, 2.5% FBS, 0.1 mM NEAA, 1 mM sodium pyruvate, 2 mM L-glutamine, 0.1 mM 2-mercaptoethanol, 100 U/ml penicillin, 0.1 mg/ml […] streptomycin, […] forskolin, and 10 μM rolipram. The entire medium was changed every 2 days from c3. Cytokines/compounds for induction of female fate were provided from c3 to the end of culture. RA and BMP concentrations used were 100 nM and 300 ng/ml, respectively, unless otherwise specified. Brightfield and fluorescence images were captured using an IX73 inverted microscope (Olympus).
(§2) The preparation of d4/c0 PGCLC for FACS is described in “ESC culture/induction and PGCLC induction/culture”. To isolate germ cells in vivo, fetal gonads of BVSC, VR or SG mice were cut and processed for FACS according to the procedure described for d4/c0 PGCLC. Culture PGCLC was also prepared by the same method except that, after dissociation, the cells were washed with 0.1% BSA-DMEM containing 100 μg/ml DNase (Sigma-Aldrich), lysed DNA from dead cells was digested to prevent the formation of cell/debris clumps. Fluorescent activity of BV/SG, SC, or DT/VR was detected with FITC, Horizon V500 or PE-Texas Red channels, respectively. FACS data was analyzed using FlowJo or FACS Diva software package.
A general note: In flow cytometry, cells or beads pass a laser one at a time.

Another test relates to PGC at E11.5. As to the kind of experiment: Ex vivo culture of E11.5 PGC, SCP3/DDX4/SG expression at c4. The test is classed as cell-based, mouse. The conditions noted are these: cultured 4 days; RA alone. How it is done: (§3) Immunofluorescence (IF) analysis was performed as described previously (Hayashi et al, 2012). The following primary antibodies were used: chicken anti-GFP (ab13970; Abeam), rabbit anti-DDX4 (ab13840; Abeam), mouse anti-DDX4 (ab27591; Abeam), rabbit anti-DAZL (ab34129; Abeam), goat anti-DAZL (sc-27333; Santa Cruz), rabbit anti-STRA8 (ab49602; Abeam), mouse anti-SYCP3 (ab97672; Abeam) and rabbit anti-TEX14 (ab41733; Abeam)IgG. The following secondary antibodies were used: Alexa Fluor 488-goat anti-mouse or chicken IgG; Alexa Fluor 568-goat anti-rabbit IgG and Alexa Fluor 633-goat anti-mouse, anti-chicken IgG; Alexa Fluor 488-donkey anti-mouse IgG; Alexa Fluor 568-donkey anti-rabbit IgG and Alexa Fluor 633-donkey anti-goat IgG. IF images were acquired using a confocal microscope [FV1000 (Olympus) or LSM780 (Zeiss)].

The next test has as its system BV/SC(+) cells. The test can be described thus: Cell cycle analysis by EdU and 7AAD uptake in PGCLC culture. As to conditions: RA alone; c9. In kind it is cell-based, mouse. How it is done: Cell cycle analysis was performed using the Click-iT EdU Flow Cytometry Assay Kit (C10424; Thermo Fischer Scientific) according to the manufacturer's instructions. Cultured PGCLC was treated with 10 μg/ml EdU for 30 min to 2 hr and analyzed by FACS.

For test [2], the system named is PGCLC induced from BVSCDT ESC(XY). The test can be described thus: Screening for factors inducing female germ cell fate: DT and BV expression by FACS at c7. In kind it is cell-based, mouse. As to conditions: added from c3, read at c7; RA 100 nM, cytokines 500 ng/ml; BMPs in combination with RA. How it is done:
as §1, §2
In the signal inhibitory experiment, LDN193189 (#04-0074; Stemgent) and BMS493 (B6688; Sigma-Aldrich) dissolved in DMSO were used as ALK2/3 inhibitor and RAR inhibitor, respectively.

The test system of test [3] is cultured PGCLC. The test can be described thus: Immunofluorescence analysis of STRA8, SCP3, DDX4 in cultured PGCLC. The test is classed as cell-based, mouse. How it is done: as §1, §3
For a further test, the system named is E9.5 PGC. As to the kind of experiment: Expansion culture of E9.5 PGC on m220-5 feeder. The test is classed as cell-based, mouse. The conditions noted are these: CsA in addition to forskolin and PDE4 inhibitor (FR10). How it is done: (§4) Since the m220-5 feeder treated with MMC was vulnerable to forskolin and rolipram, m220-5 cells were subcultured 3 times with both forskolin and rolipram each at 10 μM and adapted to these compounds before MMC treatment (1-2 μg/ml for 2 hr). d4 PGCLC or E9.5 PGC(BDF1×Stella-EGFP) was selected by FACS, and the cells were seeded on m220-5 cells in GMEM medium containing 10% KSR, 0.1 mM NEAA, 1 mM sodium pyruvate, 0.1 mM 2-mercaptoethanol, 100 U/ml penicillin, 0.1 mg/ml streptomycin, 2 mM L-glutamine, 2.5% FCS, 100 ng/ml SCF, 10 μM forskolin, and 10 μM rolipram. Half of the culture medium was changed every 2 days.
(§5) Expansion culture of PGC/PGCLC to investigate the combined effect of cyclosporin A (CsA) was performed as in Example [I], except that 5 μM CsA was added to the medium in addition to 10 μM forskolin and 10 μM loripram (FR10).

A further test has as its system BV (+) d4 PGCLCs. As to the kind of experiment: Compound library screening for PGCLC proliferation (BV fluorescence by cell analyzer). The test is classed as cell-based, mouse. The conditions noted are these: three CsA entries in the screening data, two exceeded; 10 μM and 1 μM. How it is done:
d4 PGCLC was seeded by FACS on m220-5 feeders in 96-well plates and BV fluorescence was monitored by cell analyzer (Cellavista; SynenTec). Fluorescence photograph for BV was taken by Cellavista cell analyzer with the following settings: 10× objectives; exposure time: 140 μsec; gain: 4×; binning: 4×4; excitation: 500/24 nm; emission: 542/27 nm. BV fluorescence was detected using the following algorithm/attribute parameters: sensitivity: 10; region merging: 200; min. granule intensity: 50; well edge distance: 200; contrast: 1; size: 3,000; intensity: 255; roughness: 500; granularity: 100; granule intensity: 255; granule count: 10,000; longishness: 100; compactness: 1. The value of “cell nucleus” was used for the detection of BV fluorescence.
The compound library was screened at concentrations of 10 μM and 1 μM. […] 200 BV (+) d4 PGCLCs induced from BDF1-2 ESC were seeded in the wells of a 96-well plate, and BV fluorescence was measured on the Cellavista cell analyzer on day 1 of culture (c1), c3, c5 and c7. The value of “cell nucleus” was used for the detection of BV fluorescence. […] For each compound, the fold difference in BV fluorescence between c1 and c7 was calculated for each compound and compounds with a fold difference value exceeding 3SD of the mean of the negative control were identified as those that potentiate PGCLC proliferation.

In the next test the test system is d4 PGCLC. As to the kind of experiment: Expansion culture of d4 PGCLC on m220-5 feeder (cell number fold increase). In kind it is cell-based, mouse. How it is done: as §4, §5
In test [4] the test system is cultured PGCLC. The test can be described thus: Cell cycle analysis of cultured PGCLC (BrdU/EdU, FACS). The test is classed as cell-based, mouse. As to conditions: FR10+CsA compared to FR10 alone. How it is done:
The cell cycle status of ESC, EpiLC, d4, d4c3, d4c5 and d4c7 PGCLC(BDF1-2) at E13.5, E14.5 and E15.5 and male germ cells was examined in the same manner as in a previous report (Kagiwada et al, 2013). To label the cultured cells, the cells were incubated with BrdU (10 μM) for 30 min. To label gem cells, female mice (ICR) were mated with Stella-EGFP males and pregnant females were intraperitoneally injected with 1 mg BrdU and embryos were harvested 30 min later. Cultured cells or male gonads were dispersed in single cells by TrypLE treatment. To detect BrdU uptake, the APC-BrdU Flow Kit (BD Biosciences) was used according to the manufacturer's instructions. The stained samples were analyzed using BD FACSAriaIII (BD) with FACS Diva (BD) software, and PGCLC or male gem cells were respectively identified by BV or Stella-EGFP fluorescence. Three biological replicates were analyzed for each sample.
The analysis was performed as in Example [I] except that EdU (10 μM) was used in place of BrdU, and Click-iT™ Plus EdU Alexa Fluor™ 647 Flow Cytometry Assay Kit (Thermo Fisher Scientific) was used for detection of EdU uptake.

The next test concerns PGCLC. As to the kind of experiment: CsA or FK506 alone at various concentrations on PGCLC proliferation (fold difference d7/d1). In kind it is cell-based, mouse. The conditions noted are these: 10, 5, 1, 0 μM tested, without FR10.
In a further test the test system is d4c7 PGCLC. As to the kind of experiment: Detection of apoptotic cells (Annexin V). The conditions noted are these: FR10+CsA compared to FR10 alone. In kind it is cell-based, mouse. How it is done:
d4c7 PGCLC cultured in FR10 or FR10+CsA was dispersed in single cells by TrypLE treatment, and stained using Annexin V Apoptosis Detection Kit APC (eBioscience) according to the manufacturer's instructions. The stained samples were analyzed using BD FACSAriaIII (BD) with FACSDiva (BD) software, and PGCLC was identified by BV fluorescence. Three biological replicates were analyzed for each sample.

Test [5] deals with testes of neonatal W/Wv mice. The test can be described thus: Transplantation of amplified PGCLC into testes of neonatal W/Wv mice (spermatogenesis, offspring). The test is classed as in vivo, mouse. The conditions noted are these: d4c7 PGCLC; neonatal W/Wv recipients. How it is done: After purification of PGCLC by FACS, 1×10^4-1×10^5 cells per testis were injected into the testes of randomly selected neonatal (7 days old) or adult W/W^v mouse, as previously reported (Chuma et al, 2005). Where necessary, anti-mouse CD4 antibody ([…] per dose, clone GK1.5; Biolegend) was injected intraperitoneally on day 0, 2 or 4 for immunosuppression (Kanatsu-Shinohara et al, 2003). To assess pregnancy, recipients at 10 weeks post-transplant were mated with BDF1 females. The genotype of BVSC transgene progeny was determined as previously reported (Ohinata et al, 2008). For HE staining, testis or epididymis was fixed with Bouin's solution and embedded in paraffin, and sections were produced.
Spermatozoons were collected from the cauda epididymis and pre-incubated in HTF medium (Kyudo Co., Ltd.) for 1 hr at 37° C. Eggs were collected from BDF1 females that were superovulated by injecting PMSG and hCG and fertilized with sperm in HTF medium. The obtained 2-cell embryos were transferred to the fallopian tube of pseudopregnant ICR females 0.5 days after pregnancy (dpc). Pups were delivered by cesarean section at 18.5 dpc.
Spermatozoons were collected from the mouse testis that received transplantation of PGCLC by the method described in Example [I], and directly injected with a micromanipulator into the ovum collected from BDF1 females that were superovulated by injecting PMSG and hCG. […]

As for `CC1=C(/C=C/C(C)=C/C=C/C(C)=C/C(=O)O)C(C)(C)CCC1` [RA, all trans retinoic acid], the “BVSC and VR expression” value in test [1] is “did not activate VR”. Besides, in the test on PGC at E11.5, the “induction of SCP3” value was “Neither control culture nor culture with RA alone induced SCP3”. The “entry into meiosis by cell cycle profile” value in the test on BV/SC(+) cells is listed as “did not go into meiosis even in c9”. Further, in [2], the “DT and BV expression in BV (+) cells” value is given as “increased DT levels”. For the same compound, the “BV/SC(+) cells expressing STRA8” value in the test with cultured PGCLC [3] (RA alone) was ~77.7%. In the test on cultured PGCLC [3] (cultured PGCLC, c9, BMP4, 5, 7 combined with RA, BMS493 with BMP2, LDN193189 with RA and BMP2), the “induction of VR/DDX4 and SCP3 (+) cells (meiotic entry)” value is listed as “did not activate VR/DDX4 or SCP3”.

On to “cyclo{-[(2S,3R,4R,6E)-3-hydroxy-4-methyl-2-methylaminooct-6-enoyl]-L-2-aminobutanoyl-N-methylglycyl-N-methyl-L-leucyl-L-valyl-N-methyl-L-leucyl-L-alanyl-D-alanyl-N-methyl-L-leucyl-N-methyl-L-leucyl-N-methyl-L-valyl-} [CsA]”, for which the “proliferation of E9.5 PGC with CsA added” value in the test on E9.5 PGC was “about 16 fold”. Moreover, the “fold difference (d7/d1) of BV signal in compound library screening” value in the test with BV (+) d4 PGCLCs is reported as > 3 SD. Further, the “proliferation of PGCLC on average with CsA added” value with d4 PGCLC (5 μM CsA in addition to forskolin and PDE4 inhibitor (FR10)) is “about 50 fold”. In addition, the “colony morphology and BVSC expression of expanded cells” value with d4 PGCLC (expansion culture on m220 feeder) is “formed flat colonies and strongly expressed BVSCs”. Also, the “percentage of S-stage cells” value in the test on cultured PGCLC [4] was “increased percentage of S-stage”. The “most optimal concentration for growing PGCLCs” value with PGCLC came out at 5 µM. In addition, the “percentage of apoptotic cells” value in the test on d4c7 PGCLC is “decreased percentage of apoptotic cells”. Also, the “function of amplified PGCLC after transplantation into testes” value in test [5] is on record as “capable of differentiating into functional spermatozoa”.
